PMC11249646, “Small-Molecule Disruptors of the Interaction between Calcium- and Integrin-Binding Protein 1 and Integrin αIIbβ3 as Novel Antiplatelet Agents” (ACS Pharmacology & Translational Science, 2024)
Like-named read-outs stand apart in the source and are kept apart here.

What was measured:
[1] = target: T1, CIB1 and αIIb interaction (CIB1-GST : F-αIIb peptide) (Homo sapiens, UniProt Q99828); assay: FP assay, 1536-well qHTS format (primary and confirmatory screen); assay type: binding; conditions: for Confirm? (confirmatory screen): YES/NO
T1 construct: made in house; host or cells: BL-21 plus RIL cells (E. coli)
T1 sequence (Q99828 1-191): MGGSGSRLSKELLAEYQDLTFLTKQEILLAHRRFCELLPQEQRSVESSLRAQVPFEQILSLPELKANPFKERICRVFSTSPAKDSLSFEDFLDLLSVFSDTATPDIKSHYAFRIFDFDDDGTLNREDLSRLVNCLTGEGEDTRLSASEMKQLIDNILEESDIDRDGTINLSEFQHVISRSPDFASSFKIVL

[2] = target: T2, GST-CIB1 : F-scrambled peptide (Homo sapiens, UniProt Q99828); assay: FP scrambled-peptide counter screen, 1536-well format; assay type: binding; conditions: for IC50: read-out: IC50 [μM] (counterscreen)
T2 construct: made in house; host or cells: BL-21 plus RIL cells (E. coli)
T2 sequence (Q99828 1-191): T1 sequence (Q99828 1-191)

[3] = Table S3, confirmatory screen, qHTS curve class, a negative sign marks inhibitory curves
[4] = Table S3, confirmatory screen, negative = inhibition
[5] = qHTS primary screen hits, Table S2, negative = inhibition
[6] = qHTS primary screen hits, Table S2, negative sign = inhibitory curve, several classes where COUNT > 1
[7] = qHTS primary screen hits, Table S2, read-out: IC50
[8] = Table S3, counterscreen, qHTS curve class, a negative sign marks inhibitory curves
[9] = Table S3, counterscreen, negative = inhibition
[10] = confirmatory screen, qHTS curve class, negative sign = inhibitory curve
[11] = confirmatory screen, read-out: IC50 [μM] (confirmatory screen)
[12] = qHTS FP screen hits, Table S2, negative = inhibition
[13] = qHTS FP screen hits, Table S2, one class per curve where COUNT > 1, negative sign = inhibitory curve
[14] = qHTS FP screen hits, Table S2, read-out: IC50
[15] = counterscreen, qHTS curve class, negative sign = inhibitory curve
[16] = Table S3, counterscreen, YES/NO call
[17] = qHTS primary screen hits, Table S2, negative sign = inhibitory curve

O=C(O)C(F)(F)F.O=C1CCCC2=C1C(c1ccncc1)N=C(Nc1nc3ccccc3o1)N2 (centres unmarked) [NCGC00188839-01]
Curve Class (confirmatory screen) [1, 3]: 4 | Efficacy (%) (confirmatory screen) [1, 4]: -25% | Efficacy (%) [1, 5]: -44% | Curve Class [1, 6]: -2.2 | IC50 [1, 7]: 28.2 µM | Curve Class (counterscreen) [2, 8]: 4 | Efficacy (%) (counterscreen) [2, 9]: -13%

CNc1ccc([N+](=O)[O-])c(Nc2ccc3[nH]ncc3c2)n1 [NCGC00387499-01]
Efficacy (%) (confirmatory screen) ([1]; confirmatory screen): -53% | Confirm? (confirmatory screen) ([1]; confirmatory screen): YES | Curve Class (confirmatory screen) [1, 10]: -1.2 | IC50 [1, 11]: 2.8 µM | Efficacy (%) [1, 12]: -48% | Curve Class [1, 13]: -1.2 | IC50 [1, 14]: 3.5 µM | Efficacy (%) (counterscreen) ([2]; counterscreen): -36% | Curve Class (counterscreen) [2, 15]: -1.2 | IC50 ([2]; counterscreen): 4 µM

O=C(NC(c1ccco1)c1cc(Cl)c2cccnc2c1O)c1cccs1.O=C(O)C(F)(F)F (centres unmarked) [NCGC00188375-01]
Curve Class (confirmatory screen) [1, 3]: 4 | Efficacy (%) (confirmatory screen) [1, 4]: 0% | Efficacy (%) [1, 5]: -35% | Curve Class [1, 6]: -1.2 | IC50 [1, 7]: 25.1 µM | Efficacy (%) (counterscreen) [2, 9]: 81% | IC50 ([2]; Table S3, counterscreen): 50.1 µM

CCOC(=O)c1nn(-c2ccc(OC)cc2)c(=O)c2c(N)scc12 [NCGC00053250-03]
Efficacy (%) (confirmatory screen) ([1]; confirmatory screen): -69% | Confirm? (confirmatory screen) ([1]; confirmatory screen): YES | Curve Class (confirmatory screen) [1, 10]: -2.4 | IC50 [1, 11]: 70.8 µM | Efficacy (%) [1, 12]: -56% | Curve Class [1, 13]: -1.2 | IC50 [1, 14]: 39.8 µM | Efficacy (%) (counterscreen) ([2]; counterscreen): -59% | Curve Class (counterscreen) [2, 15]: -2.2 | IC50 ([2]; counterscreen): 20 µM

O=C(Nc1nc(-c2ccccc2)cs1)c1ccncc1NS(=O)(=O)c1cccs1.O=C(O)C(F)(F)F [NCGC00345032-01]
Efficacy (%) (confirmatory screen) ([1]; confirmatory screen): -85% | Confirm? (confirmatory screen) ([1]; confirmatory screen): YES | Curve Class (confirmatory screen) [1, 10]: -1.2 | IC50 [1, 11]: 25.1 µM | Efficacy (%) [1, 5]: -59% | Curve Class [1, 6]: -2.2 | Efficacy (%) (counterscreen) ([2]; counterscreen): -52% | Confirm? (counterscreen) ([2]; counterscreen, YES/NO): YES | Curve Class (counterscreen) [2, 15]: -2.2 | IC50 ([2]; counterscreen): 79.4 µM

O=c1[nH]c(=O)c2nc3ccccc3nc2[nH]1 [NCGC00015021-05]
Efficacy (%) (confirmatory screen) ([1]; confirmatory screen): -58% | Confirm? (confirmatory screen) ([1]; confirmatory screen): YES | Curve Class (confirmatory screen) [1, 10]: -2.2 | IC50 [1, 11]: 44.7 µM | Efficacy (%) [1, 12]: -54% | IC50 [1, 14]: 33.5 µM | Efficacy (%) (counterscreen) ([2]; counterscreen): -65% | Curve Class (counterscreen) [2, 15]: -2.2 | IC50 ([2]; counterscreen): 35.5 µM

CC(=O)Nc1sc2c(c1-c1nc3ccccc3s1)CNC2.O=C(O)C(F)(F)F [NCGC00185090-03]
Curve Class (confirmatory screen) [1, 3]: 4 | Efficacy (%) (confirmatory screen) [1, 4]: -34% | Efficacy (%) [1, 12]: -28% | IC50 [1, 14]: 12.6 µM | Confirm? (counterscreen) [2, 16]: YES | Curve Class (counterscreen) [2, 8]: -2.4 | Efficacy (%) (counterscreen) [2, 9]: -43% | IC50 ([2]; Table S3, counterscreen): 50.1 µM

O=c1cc(-c2ccccc2)oc2cc(O)c(O)c(O)c12 [NCGC00017236-08]
Efficacy (%) (confirmatory screen) ([1]; confirmatory screen): -112% | IC50 [1, 11]: 39.8 µM | Efficacy (%) [1, 5]: -30% | IC50 [1, 7]: 34.1 µM | Efficacy (%) (counterscreen) ([2]; counterscreen): -64% | IC50 ([2]; counterscreen): 39.8 µM

O=C(O)C(F)(F)F.Oc1cccc2cc(N3CCCC3)cnc12 [NCGC00188744-01]
Curve Class (confirmatory screen) [1, 3]: 4 | Efficacy (%) (confirmatory screen) [1, 4]: -14% | Efficacy (%) [1, 12]: -48% | Curve Class [1, 13]: -2.2 | IC50 [1, 14]: 28.2 µM | Confirm? (counterscreen) [2, 16]: YES | Curve Class (counterscreen) [2, 8]: -1.4 | Efficacy (%) (counterscreen) [2, 9]: -34% | IC50 ([2]; Table S3, counterscreen): 17.8 µM

Oc1ccc(Cl)cc1Cc1cc(Cl)ccc1O [NCGC00091325-09]
Efficacy (%) (confirmatory screen) ([1]; confirmatory screen): -77% | Confirm? (confirmatory screen) ([1]; confirmatory screen): YES | Curve Class (confirmatory screen) [1, 10]: -2.2 | IC50 [1, 11]: 44.7 µM | Efficacy (%) [1, 12]: -86% | Curve Class [1, 13]: -2.2 | IC50 [1, 14]: 79.4 µM | Efficacy (%) (counterscreen) ([2]; counterscreen): -38% | Curve Class (counterscreen) [2, 15]: -1.2 | IC50 ([2]; counterscreen): 10 µM

O=C(O)C(F)(F)F.O=C1CCCC2=C1C(c1ncccc1C(F)(F)F)N=C(Nc1nc3ccccc3o1)N2 (centres unmarked) [NCGC00189070-01]
Curve Class (confirmatory screen) [1, 3]: 4 | Efficacy (%) (confirmatory screen) [1, 4]: -19% | Efficacy (%) [1, 5]: -47% | Curve Class [1, 6]: -2.2 | IC50 [1, 7]: 39.8 µM | Confirm? (counterscreen) [2, 16]: YES | Curve Class (counterscreen) [2, 8]: -2.4 | Efficacy (%) (counterscreen) [2, 9]: -41% | IC50 ([2]; Table S3, counterscreen): 28.2 µM

CCCCCCCCCCCCCCCC[N+](C)(C)CCN(Cc1ccc(OC)cc1)c1ncccn1.[Br-] [NCGC00016507-05]
Curve Class (confirmatory screen) [1, 3]: 4 | Efficacy (%) (confirmatory screen) [1, 4]: -36% | Efficacy (%) [1, 5]: -71% | Curve Class [1, 17]: -2.2 | IC50 [1, 7]: 79.4 µM | Curve Class (counterscreen) [2, 8]: 3 | Efficacy (%) (counterscreen) [2, 9]: 100% | IC50 ([2]; Table S3, counterscreen): 89.1 µM

Cn1ccc(=Nc2ccc(NC(=O)c3ccc(/N=c4\ccn(C)c5ccc([N+](=O)[O-])cc45)cc3[N+](=O)[O-])cc2)cc1.O=C(O)C(F)(F)F [NCGC00356066-02]
Efficacy (%) (confirmatory screen) ([1]; confirmatory screen): -82% | Confirm? (confirmatory screen) ([1]; confirmatory screen): YES | Curve Class (confirmatory screen) [1, 10]: -1.2 | Efficacy (%) [1, 5]: -65% | Curve Class [1, 6]: -2.2 | IC50 [1, 7]: 39.8 µM | Efficacy (%) (counterscreen) ([2]; counterscreen): -46% | Curve Class (counterscreen) [2, 15]: -1.2 | IC50 ([2]; counterscreen): 12.6 µM

O=C1OC(c2ccc(O)c(S(=O)(=O)[O-])c2)(c2ccc(O)c(S(=O)(=O)[O-])c2)c2c(Br)c(Br)c(Br)c(Br)c21.[Na+].[Na+] [NCGC00159391-03]
Curve Class (confirmatory screen) [1, 3]: 4 | Efficacy (%) (confirmatory screen) [1, 4]: -20% | Efficacy (%) [1, 5]: -32% | Curve Class [1, 6]: -1.4 | IC50 [1, 7]: 15.8 µM | Efficacy (%) (counterscreen) [2, 9]: 31% | IC50 ([2]; Table S3, counterscreen): 50.1 µM

CC(C)(C)OC(=O)CC(=O)NNC(=O)c1nc2ccccc2[nH]1 [NCGC00181234-01]
CONFIRMATORY SCREEN Efficacy (%) ([1]; confirmatory screen): -10% | CONFIRMATORY SCREEN Curve Class ([1]; confirmatory screen, qHTS curve class): 4 | Efficacy (%) [1, 5]: -37% | Curve Class [1, 17]: -2.4 | IC50 [1, 7]: 39.8 µM | COUNTERSCREEN Efficacy (%) ([2]; counterscreen): -21% | COUNTERSCREEN Curve Class ([2]; counterscreen, qHTS curve class): 4

CN(C)CCCNC(=O)c1ccc(-c2cc(O)c3ncccc3c2)cc1 [NCGC00183808-06]
Curve Class (confirmatory screen) [1, 3]: 4 | Efficacy (%) (confirmatory screen) [1, 4]: 0% | Confirm? (counterscreen) [2, 16]: YES | Curve Class (counterscreen) [2, 8]: -2.4 | Efficacy (%) (counterscreen) [2, 9]: -38% | IC50 ([2]; Table S3, counterscreen): 70.8 µM

COc1ccc(-n2ncc3c2CCCC3NC(=O)c2ccccc2F)cc1.O=C(O)C(F)(F)F (centres unmarked) [NCGC00273507-01]
Curve Class (confirmatory screen) [1, 3]: 2.4 | Efficacy (%) (confirmatory screen) [1, 4]: 22% | Efficacy (%) [1, 5]: -45% | Curve Class [1, 6]: -2.2 | IC50 [1, 7]: 39.8 µM | Curve Class (counterscreen) [2, 8]: 4 | Efficacy (%) (counterscreen) [2, 9]: 13%

COc1ccc(NC(=O)c2[nH]c(C)c(C(C)=O)c2C)cc1S(=O)(=O)Nc1ccccc1C#N [NCGC00348145-01]
Efficacy (%) (confirmatory screen) ([1]; confirmatory screen): -41% | Confirm? (confirmatory screen) ([1]; confirmatory screen): YES | Curve Class (confirmatory screen) [1, 10]: -2.2 | IC50 [1, 11]: 35.5 µM | Efficacy (%) [1, 12]: -21% | IC50 [1, 14]: 31.6 µM | Efficacy (%) (counterscreen) ([2]; counterscreen): 157% | Confirm? (counterscreen) ([2]; counterscreen, YES/NO): YES | Curve Class (counterscreen) [2, 15]: 3 | IC50 ([2]; counterscreen): 39.8 µM
